SMILES strings stand for the structures.

We go through nine molecules from ChEMBL document CHEMBL1126189, “Synthesis and X-ray crystallographic analysis of quinazolinone cholecystokinin/gastrin receptor ligands” (J Med Chem, 1992).

One assay deals with T1, Gastrin/cholecystokinin type B receptor (Mus musculus, UniProt P56481).
T1 sequence (P56481 whole entry): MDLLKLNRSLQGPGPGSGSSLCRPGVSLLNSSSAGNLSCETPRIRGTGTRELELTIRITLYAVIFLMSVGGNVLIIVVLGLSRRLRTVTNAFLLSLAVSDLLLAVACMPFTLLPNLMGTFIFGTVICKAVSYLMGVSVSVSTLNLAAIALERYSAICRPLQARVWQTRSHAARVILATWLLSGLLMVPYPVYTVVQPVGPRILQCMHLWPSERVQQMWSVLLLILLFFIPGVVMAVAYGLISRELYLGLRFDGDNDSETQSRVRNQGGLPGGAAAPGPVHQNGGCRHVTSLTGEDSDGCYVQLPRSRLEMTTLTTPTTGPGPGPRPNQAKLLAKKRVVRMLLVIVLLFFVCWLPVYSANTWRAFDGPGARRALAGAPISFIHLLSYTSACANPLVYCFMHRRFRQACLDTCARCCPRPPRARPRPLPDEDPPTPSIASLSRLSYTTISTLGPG
The assay can be described thus: Evaluated for inhibition of [125I]CCK-8S binding to cholecystokinin CCK-B receptor from mouse brain membranes […] (in vitro).
Conditions: not given
In general, IC50 refers to the midpoint of a concentration-inhibition curve. High values mean lower potency, low ones higher potency. For `CC(C)Oc1cccc(-n2c(/C=C/c3c[nH]c4ccccc34)nc3ccccc3c2=O)c1`, the IC50 came out at 430 nM.

In turn, `CC(C)Oc1cccc(-n2c(/C=C/c3c[nH]c4ccc(Br)cc34)nc3ccccc3c2=O)c1` gave an IC50 of 1400 nM.

With `CC(C)Oc1cccc(-n2c(C(C)Cc3c[nH]c4ccccc34)nc3ccccc3c2=O)c1` (centres undefined), the IC50 was 9100 nM.

In turn, `CC(C)Oc1cccc(-n2c(CC(C)c3c[nH]c4ccccc34)nc3ccccc3c2=O)c1` (centres undefined) came in with an IC50 of 70 nM.

Another assay has as its target T2, Gastrin/cholecystokinin type B receptor (Mus musculus) (UniProt P56481).
T2 sequence (whole entry): T1 sequence (P56481 whole entry)
The assay can be described thus: Evaluated for inhibition of [125I]-CCK-8S binding to cholecystokinin CCK-B receptor from mouse brain membranes […] (in vitro). As to conditions: 10 uM.
In general, inhibition refers to the relative decrease from the control value, in per cent. With `O=c1c2ccccc2nc(Cc2c[nH]c3ccccc23)n1-c1ccccc1`, the inhibition is 36%.

For `O=c1c2ccccc2nc(CCCc2c[nH]c3ccccc23)n1-c1ccccc1`, the inhibition is 20%.

The molecule `O=c1c2ccccc2nc(CCc2ccccc2)n1-c1ccccc1` came in with an inhibition of 27%.

Molecule `O=c1c2ccccc2nc(Cc2ccccc2)n1-c1ccccc1` showed an inhibition of 6%.

The molecule `O=c1c2ccccc2nc(CCCc2ccccc2)n1-c1ccccc1` registered an inhibition of 21%.
